Experimental data: patent publication US6410792B1, “Amide derivatives and methods for using the same as selective neuropeptide Y receptor antagonists” (Bayer Corporation, priority 1997, dated 2002)
Structures can show the parent of a compound that is named as a salt. Where two headings read alike, the source gives them in different places.

How the values were obtained:
Human NPY5 receptor = molecular target: T1, Human NPY5 receptor (Homo sapiens, UniProt Q15761); assay: Human NPY5 receptor binding assay ([125I]PYY, membrane protein)
T1 sequence (Q15761 1-445): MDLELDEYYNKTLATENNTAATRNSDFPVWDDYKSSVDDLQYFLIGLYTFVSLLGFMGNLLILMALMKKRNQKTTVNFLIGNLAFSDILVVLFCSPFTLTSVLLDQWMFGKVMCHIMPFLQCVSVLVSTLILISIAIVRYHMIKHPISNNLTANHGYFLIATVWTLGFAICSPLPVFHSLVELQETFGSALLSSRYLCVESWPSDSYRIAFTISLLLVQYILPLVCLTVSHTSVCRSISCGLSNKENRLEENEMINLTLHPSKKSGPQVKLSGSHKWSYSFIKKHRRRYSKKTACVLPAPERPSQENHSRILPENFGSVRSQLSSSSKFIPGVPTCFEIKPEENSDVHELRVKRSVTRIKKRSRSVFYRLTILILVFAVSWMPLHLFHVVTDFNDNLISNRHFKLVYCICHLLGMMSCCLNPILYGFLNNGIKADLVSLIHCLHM
In short: (§1)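 Filter binding with membrane protein and porcine [125I]PYY at 75-100 pM, 2 h at room temperature; nonspecific binding set by 1 μM PYY.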

Rat NPY5 receptor [1] = molecular target: T2, Rat NPY5 receptor (Rattus norvegicus, UniProt Q63634); assay: Rat NPY5 receptor binding assay ([125I]PYY, membrane protein)
T2 sequence (Q63634 1-445): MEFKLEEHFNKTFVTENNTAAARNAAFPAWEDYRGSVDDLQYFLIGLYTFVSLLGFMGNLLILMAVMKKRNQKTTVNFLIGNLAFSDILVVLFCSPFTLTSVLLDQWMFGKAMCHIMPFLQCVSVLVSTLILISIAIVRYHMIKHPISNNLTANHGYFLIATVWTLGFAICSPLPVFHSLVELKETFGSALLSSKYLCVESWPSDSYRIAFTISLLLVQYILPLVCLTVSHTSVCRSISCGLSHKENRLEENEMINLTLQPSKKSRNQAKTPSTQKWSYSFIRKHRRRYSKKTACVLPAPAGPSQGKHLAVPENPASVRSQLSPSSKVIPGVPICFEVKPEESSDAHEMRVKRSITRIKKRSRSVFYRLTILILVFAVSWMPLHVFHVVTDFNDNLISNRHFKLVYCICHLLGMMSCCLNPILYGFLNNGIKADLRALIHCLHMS
In short: as §1

Y2 receptor = molecular target: T3, Y2 receptor (Homo sapiens, UniProt P49146); assay: Y2 receptor binding assay ([125I]PYY, membrane protein); details: membrane protein, read-out: hNPY2 IC50
T3 sequence (P49146 1-381): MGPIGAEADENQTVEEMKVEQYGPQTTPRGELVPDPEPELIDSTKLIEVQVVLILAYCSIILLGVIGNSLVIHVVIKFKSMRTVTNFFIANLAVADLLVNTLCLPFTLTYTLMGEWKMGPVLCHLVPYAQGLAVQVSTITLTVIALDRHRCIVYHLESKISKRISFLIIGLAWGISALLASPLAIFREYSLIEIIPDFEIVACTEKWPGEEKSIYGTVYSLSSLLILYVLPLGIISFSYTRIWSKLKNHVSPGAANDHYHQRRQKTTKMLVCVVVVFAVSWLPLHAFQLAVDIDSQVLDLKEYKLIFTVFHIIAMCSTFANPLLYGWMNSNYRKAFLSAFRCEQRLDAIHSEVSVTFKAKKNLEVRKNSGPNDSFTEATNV
In short: (§2)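 Filtration binding with membrane protein and drug dilution, 2 h at room temperature with mixing, radioactivity counted by gamma or scintillation. Y2: 25 pM [125I]PYY in Krebs-Ringer bicarbonate pH 7.4 with 0.01% BSA, nonspecific by 1 μM NPY. Y4/PP1: 50 pM [125I]hPP in HEPES-buffered saline pH 7.4 with protease inhibitors and 0.3% BSA, nonspecific by 1 μM hPP.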

Rat NPY5 receptor [2] = molecular target: T2, Rat NPY5 receptor; assay: Rat NPY5 cyclase assay (in vitro functional assay, forskolin-stimulated adenylate cyclase, cAMP); assay type: cell-based; details: percentage of forskolin-stimulated adenylate cyclase; for activity at 10 µM: 20 min, read-out: rNPY5 % FSAC (10 μM)
Protocol: D. Rat NYP5 Cyclase Assay (In Vitro Functional Assay)
Cells stably expressing the rat NPY5 receptor are resuspended in serum-free DMEM containing 10 mM HEPES (pH 7.4) and 1 mM isobutylmethylxanthine (IBMX). […] forskolin and drug dilution are then added to the cells. After a 20 minute incubation of the samples at 37° C, the assay is stopped by placing the samples in boiling water for 3 minutes. The cAMP produced in each sample is quantitated with a radioimmunoassay kit (NEN DuPont). Data are expressed as a percentage of forskolin-stimulated adenylate cyclase.

human Y4/PP1 receptor = human Y4/PP1 receptor (Homo sapiens, UniProt P50391); assay: Human Y4/PP1 receptor binding assay ([125I]human PP, membrane protein)
Sequence of human Y4/PP1 receptor (P50391 whole entry): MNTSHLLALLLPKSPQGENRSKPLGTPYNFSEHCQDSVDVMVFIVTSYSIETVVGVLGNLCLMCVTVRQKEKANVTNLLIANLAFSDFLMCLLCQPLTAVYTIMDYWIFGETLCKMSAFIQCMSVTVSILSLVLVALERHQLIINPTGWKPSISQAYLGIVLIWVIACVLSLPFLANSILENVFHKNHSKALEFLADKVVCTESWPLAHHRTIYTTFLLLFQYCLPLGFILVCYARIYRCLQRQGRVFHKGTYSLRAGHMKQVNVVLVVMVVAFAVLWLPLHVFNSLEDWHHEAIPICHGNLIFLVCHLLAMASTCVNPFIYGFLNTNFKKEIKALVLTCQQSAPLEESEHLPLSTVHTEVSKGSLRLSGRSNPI
In short: as §2

Human NPY1 receptor = molecular target: T4, Human NPY1 receptor (Homo sapiens, UniProt P25929); assay: Human NPY1 receptor binding assay ([125I]PYY, SK-N-MC cells)
T4 construct: host or cells: SK-N-MC cells
T4 sequence (P25929 1-384): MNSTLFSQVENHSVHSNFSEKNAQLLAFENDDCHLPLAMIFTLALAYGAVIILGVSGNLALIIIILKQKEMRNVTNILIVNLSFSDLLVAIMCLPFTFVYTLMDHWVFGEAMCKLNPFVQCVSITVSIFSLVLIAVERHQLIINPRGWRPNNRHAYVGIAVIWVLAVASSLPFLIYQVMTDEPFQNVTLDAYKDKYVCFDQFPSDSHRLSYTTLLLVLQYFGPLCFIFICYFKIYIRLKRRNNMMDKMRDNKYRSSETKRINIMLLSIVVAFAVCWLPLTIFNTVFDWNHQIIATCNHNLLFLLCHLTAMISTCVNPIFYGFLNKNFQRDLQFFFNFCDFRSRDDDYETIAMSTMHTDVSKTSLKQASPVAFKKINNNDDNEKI
In short: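 Whole-cell competition with ~50 pM [125I]PYY on SK-N-MC monolayers, 3 h at room temperature after 30 min preincubation in HEPES-buffered (pH 7.3) serum-free DMEM containing protease inhibitors. Gamma counting of cell lysates; 1 μM NPY gave nonspecific binding.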

[3] = [125I]PYY, read-out: hNPY5 IC50
[4] = [125I]PYY, read-out: rNPY5 IC50
[5] = [125I]human PP, membrane protein, read-out: hNPY4 IC50
[6] = [125I]PYY, SK-N-MC cells, read-out: hNPYI IC50

O=C(CN1CCC(O)(c2ccccc2)CC1)Nc1ccc(C2CCCCC2)cc1 [Compound 26, N-(4-Cyclohexyl-phenyl)-2-(4-hydroxy-4-phenyl-piperidin-1-yl)-acetamide]
IC50 (Human NPY5 receptor; hNPY5 IC50, [125I]PYY binding): 93 nM
IC50 (Rat NPY5 receptor [1]; rNPY5 IC50, [125I]PYY binding): 37 nM
IC50 (Y2 receptor; [125I]PYY binding): > 5 µM
activity at 10 µM (Rat NPY5 receptor [2]; compound at 10 μM): 111%

CNC1(C(N)=O)CCN(CC(=O)Nc2ccc(C3CCCCC3)cc2)CC1 [Compound 30, 1-[(4-Cyclohexyl-phenylcarbamoyl)-methyl]-4-methylamino-piperidin-4-carboxylic acid amide]
IC50 (Human NPY5 receptor; [125I]PYY binding, read-out: hNPY5 IC50): 60 nM
IC50 (Rat NPY5 receptor [1]; [125I]PYY binding, read-out: rNPY5 IC50): 13 nM
IC50 (Y2 receptor; [125I]PYY binding): > 5 µM
activity at 10 µM (Rat NPY5 receptor [2]; compound at 10 μM): 107%

Cc1ccc(OC(=O)c2ccc(NC(=O)CN3CCC(n4c(=O)[nH]c5ccccc54)CC3)cc2)cc1 [Compound 264, 4-{2-[4-(2-Oxo-2,3-dihydro-benzoimidazol-1-yl)-piperidin-1-yl]-acetylamino}-benzoic acid P-tolyl ester; hydrochloride]
IC50 (Human NPY5 receptor; [3]): 180 nM
IC50 (Rat NPY5 receptor [1]; [4]): 100 nM
IC50 (Y2 receptor; [125I]PYY): > 5 µM
IC50 (human Y4/PP1 receptor; [5]): > 5 µM
activity at 10 µM (Rat NPY5 receptor [2]; 10 μM): 139%

Cl.O=C(CN1CCC(n2c(=O)[nH]c3ccccc32)CC1)Nc1ccc(C(=O)C(=O)c2ccccc2)cc1 [Compound 265]
rNPY5 % FSAC (10 μM) (Rat NPY5 receptor [2]; 10 μM): 90%

Cl.O=C(CN1CCC(n2c(=O)[nH]c3ccccc32)CC1)NCC1CCCCC1 [Compound 282, N-Cyclohexylmethyl-2-[4-(2-oxo-2,3-dihydro-benzoimidazol-1-yl)-piperidin-1-yl]-acetamide; hydrochloride]
IC50 (Human NPY5 receptor; [3]): 380 nM
melting point: 196 to 197 °C
IC50 (Rat NPY5 receptor [1]; [4]): 313 nM
IC50 (Y2 receptor; [125I]PYY): > 5 µM
IC50 (human Y4/PP1 receptor; [5]): > 5 µM
IC50 (Human NPY1 receptor; [6]): > 5 µM

CC(C)OCCCNC(=O)CN1CCC(n2c(=O)[nH]c3ccccc32)CC1.Cl [Compound 283, N-(3-Isopropoxy-propyl)-2-[4-(2-oxo-2,3-dihydro-benzoimidazol-1-yl)-piperidin-1-yl]-acetamide; hydrochloride]
IC50 (Human NPY5 receptor; [3]): > 10000 nM
melting point: 237 to 238 °C
IC50 (Rat NPY5 receptor [1]; [4]): > 10000 nM
IC50 (Y2 receptor; [125I]PYY): > 5 µM
IC50 (human Y4/PP1 receptor; [5]): > 5 µM
IC50 (Human NPY1 receptor; [6]): > 5 µM

COCCNC(=O)CN1CCC(n2c(=O)[nH]c3ccccc32)CC1 [Compound 284, N-(2-Methoxy-ethyl)-2-[4-(2-oxo-2,3-dihydro-benzoimidazol-1-yl)-piperidin-1-yl]-acetamide]
IC50 (Human NPY5 receptor; [3]): > 10000 nM
melting point: 77 to 78 °C
IC50 (Rat NPY5 receptor [1]; [4]): > 10000 nM
IC50 (Y2 receptor; [125I]PYY): > 5 µM
IC50 (human Y4/PP1 receptor; [5]): > 5 µM
IC50 (Human NPY1 receptor; [6]): > 5 µM

CC(=O)NC1CCN(CC(=O)Nc2ccc(C3CCCCC3)cc2)C1.O=C(O)C(=O)O (centres unmarked) [Compound 293, 2-(3-Acetylamino-pyrrolidin-1-yl)-N-(4-cyclohexyl-phenyl)-acetamide; compound with oxalic acid]
IC50 (Human NPY5 receptor; [3]): 190 nM
melting point: 122 °C
IC50 (Rat NPY5 receptor [1]; [4]): 170 nM
IC50 (Y2 receptor; [125I]PYY): > 5 µM
IC50 (human Y4/PP1 receptor; [5]): > 5 µM
IC50 (Human NPY1 receptor; [6]): > 5 µM

CCCOC1(c2ccccc2)CCN(CC(=O)Nc2ccc(C3CCCCC3)cc2)CC1 [Compound 294, N-(4-Cyclohexyl-phenyl)-2-(4-phenyl-4-propoxy-piperidin-1-yl)-acetamide; hydrochloride]
IC50 (Human NPY5 receptor; hNPY5 IC50, [125I]PYY): 51 nM
IC50 (Rat NPY5 receptor [1]; rNPY5 IC50, [125I]PYY): 50 nM
IC50 (Y2 receptor; [125I]PYY): > 5 µM
IC50 (human Y4/PP1 receptor; [5]): > 5 µM
IC50 (Human NPY1 receptor; [6]): > 5 µM
activity at 10 µM (Rat NPY5 receptor [2]; 10 μM): 101%

N#CC1(c2ccccc2)CCN(CC(=O)Nc2ccc(C3CCCCC3)cc2)CC1 [Compound 295, 2-(4-Cyano-4-phenyl-piperidin-1-yl)-N-(4-cyclohexyl-phenyl)-acetamide; hydrochloride]
IC50 (Human NPY5 receptor; [3]): 4.7 nM
IC50 (Rat NPY5 receptor [1]; rNPY5 IC50, [125I]PYY): 4.5 nM
IC50 (Y2 receptor; [125I]PYY): > 5 µM
IC50 (human Y4/PP1 receptor): > 5 µM
IC50 (Human NPY1 receptor): > 5 µM
activity at 10 µM (Rat NPY5 receptor [2]; 10 μM): 101%

Cl.O=C(CN1CCC(n2c(=O)[nH]c3ccccc32)CC1)Nc1ccc2c(c1)C(=O)c1ccccc1-2 [Compound 306, 2-[4-(2-Oxo-2,3-dihydro-benzoimidazol-1-yl)-piperidin-1-yl]-N-(9-oxo-9H-fluoren-2-yl)-acetamide; hydrochloride]
IC50 (Human NPY5 receptor; [3]): 44 nM
melting point: 204 °C
IC50 (Rat NPY5 receptor [1]; [4]): 35 nM
IC50 (Y2 receptor; [125I]PYY): > 5 µM
IC50 (human Y4/PP1 receptor; [5]): > 5 µM
IC50 (Human NPY1 receptor; [6]): > 5 µM

O=C(CN1CCC(n2c(=O)[nH]c3ccccc32)CC1)Nc1cccc2c1-c1ccccc1C2=O [Compound 308, 2-[4-(2-Oxo-2,3-dihydro-benzoimidazol-1-yl)-piperidin-1-yl]-N-(9-oxo-9H-fluoren-4-yl)-acetamide]
IC50 (Human NPY5 receptor; [3]): 360 nM
melting point: 205 °C
IC50 (Rat NPY5 receptor [1]; [4]): 300 nM
IC50 (Y2 receptor; [125I]PYY): > 5 µM
IC50 (human Y4/PP1 receptor; [5]): > 5 µM
IC50 (Human NPY1 receptor; [6]): > 5 µM

Cl.O=C(CN1CCC(n2c(=O)[nH]c3ccccc32)CC1)Nc1ccc2oc3ccccc3c2c1 [Compound 310, N-Dibenzofuran-2-yl-2-[4-(2-oxo-2,3-dihydro-benzoimidazol-1-yl)-piperidin-1-yl]-acetamide; hydrochloride]
IC50 (Human NPY5 receptor; [3]): 34 nM
melting point: 186 °C
IC50 (Rat NPY5 receptor [1]; [4]): 34 nM
IC50 (Y2 receptor; [125I]PYY): > 5 µM
IC50 (human Y4/PP1 receptor; [5]): > 5 µM
IC50 (Human NPY1 receptor; [6]): > 5 µM

O=C(Nc1ccc(-c2ccccc2)cc1)C(c1ccccc1)N1CCC(n2c(=O)[nH]c3ccccc32)CC1 (centres unmarked) [Compound 312, N-Biphenyl-4-yl-2-[4-(2-oxo-2,3-dihydro-benzoimidazol-1-yl)-piperidin-1-yl]-2-phenyl-acetamide]
IC50 (Human NPY5 receptor; hNPY5 IC50, [125I]PYY): 32 nM
melting point: 207 to 210 °C
IC50 (Rat NPY5 receptor [1]; rNPY5 IC50, [125I]PYY): 24 nM
IC50 (Y2 receptor; [125I]PYY): > 5 µM
IC50 (human Y4/PP1 receptor; [5]): > 5 µM
IC50 (Human NPY1 receptor; [6]): > 5 µM
